PMC6749524, “Identification of New Antifungal Agents Targeting Chitin Synthesis by a Chemical-Genetic Method” (Molecules, 2019)

Columns and labels:
[1] = test system: chs3∆ (chs3::KanMX in BY4741); experiment: MIC in compound library screening assay, chs3∆ yeast; type: cell-based, S. cerevisiae
Method: The compound library is a combination of synthetic compounds from Enamine (Kyiv, Ukraine) and Life Chemicals Inc. (Burlington, ON, Canada) and natural products from the Institute of Medicinal Biotechnology. We used WT, chs3∆, and fks1∆ yeast strains to screen new antifungal agents. The screening assays were performed in 96-well plates in a final volume of 200 μL. Fresh yeast cells (OD600 = 0.8) were diluted to 10^5 CFU/mL in YPD medium. We added 198 μL of diluted culture and 2 μL of compounds into each well, and the final concentration of compounds was 100 μg/mL with 1% DMSO. The yeast cells were incubated at 30 °C for 24 hours to assess the growth. For the compounds that inhibited the growth of all three yeast strains, they were serially diluted to determine the minimal inhibit concentration (MIC) with the same method. MIC endpoints were defined as the lowest concentration of drugs that cause a 90% decrease in growth compared to the drug-free control (MIC90).

[2] = test system: chitin content in WT yeast cells; experiment: Chitin content assay (Morgan–Elson method); type: cell-based, S. cerevisiae; conditions: 16 hours at 30 °C
Method: The chitin content was assessed by measuring the level of D-glucosamine according to the method described by Morgan–Elson. WT yeast cells were grown to 10^5 CFU/ml in YPD medium and then treated with IMB-D10 (12.5 μg/mL), IMB-F4 (25 μg/mL), or DMSO (0.25%) for 16 hours at 30 °C. Cells were collected by centrifugation at 1500 g for 5 min and then freeze-dried after being washed twice with deionized water. Five-milligram sample was weighted and hydrolyzed by H2SO4 at 100 °C for 4 hours. The hydrolysates were centrifuged at 12,000 rpm for 5 min. We removed 100 μL supernatant to another tube and adjusted pH value to 3 with 2 M KOH; then the volume was set to 1 mL with water. One milliliter acetylacetone (7% acetylacetone in 1 M Na2CO3) was added into the tube and incubated for 25 min at 100 °C. The 1.5 mL Ehrlich^’s reagent and 1.5 mL absolute ethyl alcohol were added into the tube for further incubation for 1 hour at 60 °C. The OD520 was determined with BioMet 3S UV-Visible Spectrophotometer (Thermo Scientific^TM, Waltham, MA, USA). N-acetyl-D-glucosamine was used to establish a standard curve for the quantification of chitin levels. All reactions were performed in triplicate.

budding yeast = experiment: MIC of CFW in the presence of compounds, checkerboard assay; type: cell-based, S. cerevisiae
Method: Fresh cell cultures of WT S. cerevisiae and C. albicans ATCC10231 (OD600 = 0.8) were diluted to 10^4 CFU/mL in YPD medium. The in vitro synergistic and antagonistic effects of compounds were determined using checkerboard assay. MIC endpoints were defined as the lowest concentration of drugs, causing 80% decrease in viability compared to the drug-free control (MIC80). The calculation and interpretation of the fractional inhibitory concentration index (FICI) were carried out by referring to the document standards. FICI = (MIC of drug A in combination) / (MIC of drug A alone) + (MIC of drug B in combination) / (MIC of drug B alone). FIC ≤0.5 was considered as a synergistic effect, and >2 was considered as antagonism.

Chs1 = experiment: Chitin synthase activity assay (WGA-coated plate); type: biochemical, S. cerevisiae; conditions: membrane protein from WT yeast
Method: (§1) The inhibitory effect of compounds IMB-D10 and IMB-F4, on the activity of chitin synthases 1, 2, and 3, was measured by the procedure, described previously. In brief, WT yeast cells were grown in YPD medium to OD600 1–2. The cells were sedimented at 1500 g for 15 min at 4 °C and washed once with water. Then, the cells were resuspended in cold 100 mM Tris-HCl (pH 7.5) buffer containing protease inhibitors, and broken by 10 cycles of vortexing with acid-washed glass beads (1 min each). The broken cells were centrifuged for 15 min at 1500g to eliminate cell wall and debris. One volume of supernatant was placed on 2 volumes of 10% w/w sucrose in 100 mM Tris-HCl pH 7.5 and centrifuged at 55,000 g for 2 hours. The pellet was resuspended in 50 mM Tris-HCl pH 7 and used as membrane protein of Chs3. For Chs1 and Chs2, the membrane protein was pretreated with 80 μg/mL trypsin for 30 min at 30 °C.
(§2) To assess the enzyme activity of Chs1, the assay mixture contained 15 μg membrane protein, 5 mM MgCl2, 32 mM Tris-maleate (pH6.5), 0.2% digitonin, 40 mM N-acetyl-glucosamine (GlcNAc), and 4 mM UDP-GlcNAc. For Chs2, the mixture contained 15 μg pretreated membrane protein, 1.6 mM CoCl2, 32 mM Tris-HCl (pH 8), 40 mM GlcNAc, and 4 mM UDP-GlcNAc. For Chs3, the mixture contained pretreated membrane protein 15 μg, 1.6 mM CoCl2, 5 mM NiCl2, 32 mM Tris-HCl (pH 8), 40 mM GlcNAc, and 4 mM UDP-GlcNAc. Different concentrations of IMB-D10 and IMB-F4 were added to the mixture, and the reaction without UDP-GlcNAc was used to measure background absorbance. The 96-well plate coated with 50 μg/mL wheat germ agglutinin (WGA) was washed three times with water, and the reaction mixture was added into the wells and incubated at 30 °C for 60 min. The reaction was stopped by 50 mM EDTA, and the plate was emptied and washed with a large volume of water, followed by the addition of 200 μL 0.5 μg/mL WGA-HRP and incubation for 5 min at room temperature. The plate was washed 5 times with running distilled water. Then, the Tetramethylbenzidine (TMB) reagent was added, and the optical density at 600 nm (OD600) was immediately detected with Multilabel Reader (Envision, PE, Pontyclun, UK). All reactions were performed in triplicate.

Chs3 = target: T1, Chs3 (Saccharomyces cerevisiae, UniProt P29465); experiment: Chitin synthase activity assay (WGA-coated plate); type: biochemical, S. cerevisiae
T1 construct: The pellet was resuspended in 50 mM Tris-HCl pH 7 and used as membrane protein of Chs3; endogenous in cells; host or cells: S. cerevisiae WT BY4741, crude membrane fraction
T1 sequence (P29465 whole entry): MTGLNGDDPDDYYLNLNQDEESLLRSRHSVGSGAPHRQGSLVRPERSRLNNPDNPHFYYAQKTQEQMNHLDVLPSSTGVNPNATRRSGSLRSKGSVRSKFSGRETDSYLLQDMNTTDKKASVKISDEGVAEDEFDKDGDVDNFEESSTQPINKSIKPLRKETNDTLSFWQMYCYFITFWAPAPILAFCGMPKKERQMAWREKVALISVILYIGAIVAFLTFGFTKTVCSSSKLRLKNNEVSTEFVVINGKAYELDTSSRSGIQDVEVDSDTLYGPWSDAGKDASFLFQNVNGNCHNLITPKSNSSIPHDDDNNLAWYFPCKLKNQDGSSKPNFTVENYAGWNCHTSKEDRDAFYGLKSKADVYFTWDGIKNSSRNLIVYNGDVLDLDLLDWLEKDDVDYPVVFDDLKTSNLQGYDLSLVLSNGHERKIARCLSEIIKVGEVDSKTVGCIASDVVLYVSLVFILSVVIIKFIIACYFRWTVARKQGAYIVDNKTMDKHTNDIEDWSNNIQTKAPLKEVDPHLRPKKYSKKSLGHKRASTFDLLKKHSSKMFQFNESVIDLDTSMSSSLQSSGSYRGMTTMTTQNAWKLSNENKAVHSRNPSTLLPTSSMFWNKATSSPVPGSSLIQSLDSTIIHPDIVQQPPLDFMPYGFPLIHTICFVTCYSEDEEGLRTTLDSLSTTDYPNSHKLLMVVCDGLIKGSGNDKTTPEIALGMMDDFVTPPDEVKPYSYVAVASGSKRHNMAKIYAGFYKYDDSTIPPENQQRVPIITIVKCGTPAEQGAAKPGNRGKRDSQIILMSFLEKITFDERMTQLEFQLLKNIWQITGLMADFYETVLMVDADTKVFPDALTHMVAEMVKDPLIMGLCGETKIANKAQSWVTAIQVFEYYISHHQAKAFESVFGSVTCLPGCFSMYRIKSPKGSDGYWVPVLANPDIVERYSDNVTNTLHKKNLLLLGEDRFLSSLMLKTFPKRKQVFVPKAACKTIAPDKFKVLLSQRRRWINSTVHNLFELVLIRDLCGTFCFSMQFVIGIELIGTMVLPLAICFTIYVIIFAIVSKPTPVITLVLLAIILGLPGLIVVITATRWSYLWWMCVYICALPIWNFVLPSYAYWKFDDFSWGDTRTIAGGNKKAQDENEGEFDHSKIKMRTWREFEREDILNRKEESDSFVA
Method: as §1, §2

## COc1cc(OC)cc(C(=O)N(CCn2ccnc2)c2nc3ccc(OC)cc3s2)c1 [IMB-F4, N-(2-(1H-imidazol-1-yl)ethyl)-3,5-dimethoxy-N-(6-methoxybenzo[d]thiazol-2-yl)benzamide]
[1]; Saccharomyces cerevisiae, 24 h, read-out: MIC, chs3∆, chs3∆ mutant, YPD, 30 °C, 24 hours, MIC90
  MIC: > 100 µg/mL
[2]; 12.5 μg/mL
  relative chitin content compared to cells treated with DMSO: 46.09 ± 8.01%
[2]; 25 μg/mL
  relative chitin content compared to cells treated with DMSO: 27 ± 5.33%
Budding yeast; yeast cells treated with 25 and 50 μg/mL IMB-F4
  resistance to CFW: increased resistance to CFW
Chs1
  inhibition of Chs1 activity: only inhibited the activity of Chs2 and Chs3
Chs3
  IC50: 6.76 µM

## N-(2-(diethylamino) ethyl)-N-(7-hydroxy-4-methoxybenzo[d]thiazol -2-yl)-2-oxo-2H-chromene-3-carboxamide [IMB-D10]
[1]; chs3∆ mutant, YPD, 30 °C, 24 hours, MIC90
  MIC, chs3∆: 100 µg/mL
[2]; 12.5 μg/mL
  relative chitin content compared to cells treated with DMSO: did not reduce the chitin level significantly
[2]; 25 μg/mL
  relative chitin content compared to cells treated with DMSO: 47.61 ± 6.79%
Budding yeast; budding yeast, presence of 12.5 μg/mL IMB-D10
  increase of the MIC of CFW: eight-fold increase
Chs1
  IC50 Chs1: 17.46 ± 3.39 µg/mL
Chs3; membrane protein from WT yeast
  IC50 Chs3: 13.08 ± 2.08 µg/mL
